This is an account of results in ChEMBL document CHEMBL6182916, “Unexpected Discovery of a Novel Triphenylphosphonium Alkylalcohol That Triggers Cancer Cell Death via Mitophagy and Ferroptosis” (J Med Chem, 2025).

Series [1] is described as follows: Drug localization in mitochondria of human HCC827 cells assessed as increase in green fluorescence by measuring pearson correlation coefficient at 10 uM incubated for 10 mins by mito-tracker green dye based confocal scanning microscopy analysis. The class given is ADME. The following applies: hcc827, 10 min.
Series [2] can be described thus: Drug metabolism in human HCC827 cells mitochondria assessed as 2-(2-(4-hydroxystyryl)-4H-chromen-4-ylidene)malononitrile hydrolysis at 10 uM incubated for 5 mins by fluorescence emission spectroscopy analysis. It is filed as ADME. The following applies: hcc827, 5 min.
Series [3] is described as follows: Drug uptake in human HCC827 cells mitochondria assessed as increase in fluorescence intensity at 10 uM by fluorescence emission spectroscopy analysis. It is filed as ADME. The following applies: hcc827, 10 µM.
The next series deals with HCC827. As to the kind of experiment: Antitumor activity against human HCC827 cells xenografted in female nude mouse model assessed as suppression of tumor growth at 100 mg/kg, ip measured every two days for 14 days. The class given is functional, organism-based. As to conditions: time 14.0 day.
A short description of series [4]: Drug localization in mitochondria of human HCC827 cells assessed as increase in green fluorescence by measuring pearson correlation coefficient at 5 uM incubated for 10 mins by mito-tracker green dye based confocal scanning microscopy analysis. The class given is ADME. As to conditions: hcc827, 10 min.
Another series concerns A-375. Put plainly: Anticancer activity against human A-375 cells assessed as inhibition of cell growth by MTT assay. It is filed as functional, cell-based. In general terms: Tetrazolium dyes change colour on reduction, which living cells bring about.

Molecules are shown by their SMILES. Calls of active or inactive are those of the source. The calls are words filed in the database; no cut-off is given here.

For the molecule `N#CC(C#N)=C1C=C(/C=C/c2ccc(OC(=O)OCCCCCCCCCC[P+](c3ccc(C(F)(F)F)cc3)(c3ccc(C(F)(F)F)cc3)c3ccc(C(F)(F)F)cc3)cc2)Oc2ccccc21.[Br-]`, the Drug uptake in series [1] is 0.46; in series [3], “Not_active”. In series [2], the Drug metabolism result is given as “metabolite_detected”.
Take `COc1cc2ncnc(Nc3ccc(F)c(Cl)c3)c2cc1OCCCN1CCOCC1`: in the series with HCC827, the outcome was Active.
Regarding `N#CC(C#N)=C1C=C(/C=C/c2ccc(O)cc2)Oc2ccccc21`, the Drug uptake in series [4] is 0.21.
Regarding `OCCCCC[P+](c1ccccc1)(c1ccccc1)c1ccccc1`, the IC50 with A-375 is greater than 40 µM.
Turning to `O=C(CCCCC(CCSCc1ccccc1)SCc1ccccc1)OCCCCC[P+](c1ccccc1)(c1ccccc1)c1ccccc1` (centres undefined), the IC50 in the series with A-375 amounted to 4.15 µM.
Still for that read-out and setting: with `O=C(CCCCC(CCSCc1ccccc1)SCc1ccccc1)OCCCCCCCCCC[P+](c1ccccc1)(c1ccccc1)c1ccccc1` (centres undefined) the figure was 0.1 µM; with `O=C(O)CCCCC(CCSCc1ccccc1)SCc1ccccc1` (centres undefined) [CPI 613], greater than 100 µM.

As usually defined, the IC50 is the concentration at which inhibition is half-maximal.
